Measurements: patent US12138272B2, “Methods and compositions for treating amyotrophic lateral sclerosis” (Amylyx Pharmaceuticals, Inc., priority 2022, dated 2024)
≈ marks a conversion by molar mass, not a printed value. Entries after “also recorded” stand apart in the source; their conditions may differ. Marks after values point to notes of the source that are not given here.

How the values were obtained:
[1] = target: T1, BSEP (Homo sapiens, UniProt O95342); experiment: Inhibition of 3H-taurocholic acid uptake by BSEP membrane vesicles (inhibitor assessment); details: for inhibitor of BSEP (conclusion in words): criterion >25% concentration-dependent inhibition of probe substrate uptake; for ATP-Dependent Uptake Activity of 3H-taurocholic acid / Signal-to-Noise Ratio / Uptake Activity of 3H-taurocholic acid, Mg-AMP / Uptake Activity of 3H-taurocholic acid, Mg-ATP: 3H-taurocholic acid 1 μM
T1 sequence (O95342 whole entry): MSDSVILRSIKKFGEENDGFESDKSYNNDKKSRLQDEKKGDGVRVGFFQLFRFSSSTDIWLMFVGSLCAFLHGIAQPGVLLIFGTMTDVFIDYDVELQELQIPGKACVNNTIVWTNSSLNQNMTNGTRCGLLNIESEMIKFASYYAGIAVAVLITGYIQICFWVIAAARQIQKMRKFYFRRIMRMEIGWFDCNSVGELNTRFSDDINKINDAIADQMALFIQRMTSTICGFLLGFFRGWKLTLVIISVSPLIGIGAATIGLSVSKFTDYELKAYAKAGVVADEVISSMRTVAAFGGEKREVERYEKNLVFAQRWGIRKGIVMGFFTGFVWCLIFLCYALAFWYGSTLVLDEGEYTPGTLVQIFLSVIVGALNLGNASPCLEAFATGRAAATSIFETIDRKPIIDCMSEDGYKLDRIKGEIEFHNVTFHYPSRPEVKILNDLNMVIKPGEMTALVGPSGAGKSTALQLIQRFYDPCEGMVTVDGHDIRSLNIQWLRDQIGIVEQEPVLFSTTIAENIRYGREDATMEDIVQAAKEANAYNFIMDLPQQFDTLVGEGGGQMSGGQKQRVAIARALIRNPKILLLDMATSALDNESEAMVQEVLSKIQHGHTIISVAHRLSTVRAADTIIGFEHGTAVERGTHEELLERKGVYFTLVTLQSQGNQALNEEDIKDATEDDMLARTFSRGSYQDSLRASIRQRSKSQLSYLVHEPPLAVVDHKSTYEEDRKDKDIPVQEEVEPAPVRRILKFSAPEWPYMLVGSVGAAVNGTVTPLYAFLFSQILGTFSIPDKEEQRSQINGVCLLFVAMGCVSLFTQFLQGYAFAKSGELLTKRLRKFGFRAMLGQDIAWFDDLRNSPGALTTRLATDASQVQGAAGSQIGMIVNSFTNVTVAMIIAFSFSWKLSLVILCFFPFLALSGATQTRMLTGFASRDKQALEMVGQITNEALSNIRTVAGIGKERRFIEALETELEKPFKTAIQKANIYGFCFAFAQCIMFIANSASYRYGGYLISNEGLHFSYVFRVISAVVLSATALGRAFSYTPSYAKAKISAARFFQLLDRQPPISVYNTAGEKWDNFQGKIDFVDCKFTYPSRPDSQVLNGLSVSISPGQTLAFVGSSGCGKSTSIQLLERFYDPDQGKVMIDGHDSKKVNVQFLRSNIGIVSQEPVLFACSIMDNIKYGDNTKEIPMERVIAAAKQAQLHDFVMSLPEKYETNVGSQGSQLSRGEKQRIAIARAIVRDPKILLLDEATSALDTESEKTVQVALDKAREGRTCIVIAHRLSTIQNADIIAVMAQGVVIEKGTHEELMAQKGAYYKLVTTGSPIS

[2] = target: T1, BSEP; experiment: ATP-dependent uptake of test article by BSEP-transfected Sf9 membrane vesicles (substrate assessment); details: for remaining BSEP activity after cyclosporine A treatment: test article 1 and 10 μM + cyclosporine A 20 μM; for substrate of BSEP (conclusion in words): criteria ≥2-fold ATP-dependent uptake and >50% inhibition by selective inhibitor; for inhibition of test article uptake by cyclosporine A: cyclosporine A 20 μM
[3] = target: T1, BSEP; experiment: in vitro
[4] = Solubility in stock solvent and assay buffers
[5] = test article 1 μM + cyclosporine 20 μM
[6] = test article 10 μM + cyclosporine 20 μM
[7] = assay buffers, aqueous buffer, kinetic from dmso stock
[8] = methanol, organic solvent or mixture
[9] = test article 10 μM, listed as UA

SMILES: C[C@H](CCC(=O)NCC(=O)O)[C@H]1CC[C@H]2[C@@H]3[C@@H](O)C[C@@H]4C[C@H](O)CC[C@]4(C)[C@H]3CC[C@]12C [Glycoursodeoxycholic acid]
- inhibitor of BSEP (conclusion in words) [1]: strongly inhibited; also recorded: inhibited
- inhibitor of BSEP (conclusion in words) ([1]; listed as glycoursodeoxycholic acid): inhibitors of BSEP
- ATP-Dependent Uptake Activity of 3H-taurocholic acid ([1]; inhibitor 10 μM): 8.56 pmol/minute/mg protein
- Signal-to-Noise Ratio ([1]; inhibitor 10 μM): 11.9
- Uptake Activity of 3H-taurocholic acid, Mg-AMP ([1]; inhibitor 10 μM): 0.788 pmol/minute/mg protein
- Uptake Activity of 3H-taurocholic acid, Mg-ATP ([1]; inhibitor 10 μM): 9.35 pmol/minute/mg protein
- ATP-Dependent Uptake Activity of 3H-taurocholic acid ([1]; inhibitor 100 μM): 1.84 pmol/minute/mg protein
- Signal-to-Noise Ratio ([1]; inhibitor 100 μM): 2.89
- Uptake Activity of 3H-taurocholic acid, Mg-AMP ([1]; inhibitor 100 μM): 0.974 pmol/minute/mg protein
- Uptake Activity of 3H-taurocholic acid, Mg-ATP ([1]; inhibitor 100 μM): 2.81 pmol/minute/mg protein
- ATP-Dependent Uptake Activity of test article ([2]; test article 1 μM): 11.2 pmol/minute/mg protein
- Uptake Activity of test article, Mg-AMP ([2]; test article 1 μM): BLQ
- Uptake Activity of test article, Mg-ATP ([2]; test article 1 μM): 11.2 pmol/minute/mg protein
- Uptake Activity of test article, Mg-AMP [2, 5]: BLQ
- Uptake Activity of test article, Mg-ATP [2, 5]: BLQ
- ATP-Dependent Uptake Activity of test article ([2]; test article 10 μM): 14.2 pmol/minute/mg protein
- Uptake Activity of test article, Mg-AMP ([2]; test article 10 μM): BLQ
- Uptake Activity of test article, Mg-ATP ([2]; test article 10 μM): 14.2 pmol/minute/mg protein
- ATP-Dependent Uptake Activity of test article [2, 6]: 0.00^b pmol/minute/mg protein
- Uptake Activity of test article, Mg-AMP [2, 6]: 6.93 pmol/minute/mg protein
- Uptake Activity of test article, Mg-ATP [2, 6]: BLQ
- ATP-dependent BSEP uptake activity relative to AMP uptake ([2]; test article 1 and 10 μM): > 2 fold
- remaining BSEP activity after cyclosporine A treatment [2]: No remaining BSEP activity
- substrate of BSEP (conclusion in words) ([2]; test article 1 and 10 μM): a substrate of BSEP transporters
- substrate of BSEP (conclusion in words) ([2]; test article 1 and 10 μM, listed as glycoursodeoxycholic acid): a substrate of BSEP
- inhibition of test article uptake by cyclosporine A ([2]; test article 1 and 10 μM): inhibited by cyclosporine A
- activity at 30 min, 10 μM [3]: 48.3%
- activity at 30 min, 100 μM [3]: 10.4%
- potency estimated from few doses at 30 min [3]: < 10 µM
- solubility [4, 7]: 0.1 mM (≈ 45 µg/mL)
- solubility [4, 8]: 50 mM (≈ 22500 µg/mL)

SMILES: O=C(O)CCCc1ccccc1 [Sodium phenylbutyrate]
- inhibitor of BSEP (conclusion in words) [1]: did not meet the criteria for identification as an inhibitor; also recorded: did not inhibit
- ATP-Dependent Uptake Activity of 3H-taurocholic acid ([1]; inhibitor 25 μM): 19.3 pmol/minute/mg protein
- Signal-to-Noise Ratio ([1]; inhibitor 25 μM): 35.9
- Uptake Activity of 3H-taurocholic acid, Mg-AMP ([1]; inhibitor 25 μM): 0.554 pmol/minute/mg protein
- Uptake Activity of 3H-taurocholic acid, Mg-ATP ([1]; inhibitor 25 μM): 19.9 pmol/minute/mg protein
- ATP-Dependent Uptake Activity of 3H-taurocholic acid ([1]; inhibitor 250 μM): 20.6 pmol/minute/mg protein
- Signal-to-Noise Ratio ([1]; inhibitor 250 μM): 31.6
- Uptake Activity of 3H-taurocholic acid, Mg-AMP ([1]; inhibitor 250 μM): 0.673 pmol/minute/mg protein
- Uptake Activity of 3H-taurocholic acid, Mg-ATP ([1]; inhibitor 250 μM): 21.3 pmol/minute/mg protein
- Uptake Activity of test article, Mg-AMP ([2]; test article 1 μM): BLQ
- Uptake Activity of test article, Mg-ATP ([2]; test article 1 μM): BLQ
- Uptake Activity of test article, Mg-AMP [2, 6]: BLQ
- Uptake Activity of test article, Mg-ATP [2, 6]: BLQ
- uptake of test article by BSEP vesicles ([2]; test article 1 and 10 μM): not detected
- substrate of BSEP (conclusion in words) ([2]; test article 1 and 10 μM): not a substrate of BSEP
- substrate of BSEP (conclusion in words) ([2]; test article 1 and 10 μM, listed as sodium phenylbutyrate): not identified as a substrate
- activity at 30 min, 25 μM [3]: 77.2%
- activity at 30 min, 250 μM [3]: 82.4%
- solubility [4, 7]: 0.25 mM
- solubility [4, 8]: 50 mM

SMILES: C[C@H](CCC(=O)NCCS(=O)(=O)O)[C@H]1CC[C@H]2[C@@H]3[C@@H](O)C[C@@H]4C[C@H](O)CC[C@]4(C)[C@H]3CC[C@]12C [Tauroursodeoxycholic acid]
- inhibitor of BSEP (conclusion in words) [1]: strongly inhibited; also recorded: inhibited
- inhibitor of BSEP (conclusion in words) ([1]; listed as TURSO): inhibitors of BSEP
- ATP-Dependent Uptake Activity of 3H-taurocholic acid ([1]; inhibitor 5 μM): 6.71 pmol/minute/mg protein
- Signal-to-Noise Ratio ([1]; inhibitor 5 μM): 10.1^b
- Uptake Activity of 3H-taurocholic acid, Mg-AMP ([1]; inhibitor 5 μM): 0.737 pmol/minute/mg protein
- Uptake Activity of 3H-taurocholic acid, Mg-ATP ([1]; inhibitor 5 μM): 7.45^b pmol/minute/mg protein
- ATP-Dependent Uptake Activity of 3H-taurocholic acid ([1]; inhibitor 50 μM): 0.747 pmol/minute/mg protein
- Signal-to-Noise Ratio ([1]; inhibitor 50 μM): 2.34
- Uptake Activity of 3H-taurocholic acid, Mg-AMP ([1]; inhibitor 50 μM): 0.556 pmol/minute/mg protein
- Uptake Activity of 3H-taurocholic acid, Mg-ATP ([1]; inhibitor 50 μM): 1.30 pmol/minute/mg protein
- ATP-Dependent Uptake Activity of test article ([2]; test article 1 μM): 14.4 pmol/minute/mg protein
- Signal-to-Noise Ratio ([2]; test article 1 μM): 3.94
- Uptake Activity of test article, Mg-AMP ([2]; test article 1 μM): 4.90^c pmol/minute/mg protein
- Uptake Activity of test article, Mg-ATP ([2]; test article 1 μM): 19.3^b pmol/minute/mg protein
- Uptake Activity of test article, Mg-AMP [2, 5]: BLQ
- Uptake Activity of test article, Mg-ATP [2, 5]: BLQ
- ATP-Dependent Uptake Activity of test article ([2]; test article 10 μM): 22.4 pmol/minute/mg protein
- Signal-to-Noise Ratio ([2]; test article 10 μM): 10.6
- Uptake Activity of test article, Mg-AMP ([2]; test article 10 μM): 2.33 pmol/minute/mg protein
- Uptake Activity of test article, Mg-ATP ([2]; test article 10 μM): 24.7 pmol/minute/mg protein
- ATP-Dependent Uptake Activity of test article [2, 6]: 2.81 pmol/minute/mg protein
- Signal-to-Noise Ratio [2, 6]: 1.71
- Uptake Activity of test article, Mg-AMP [2, 6]: 3.98 pmol/minute/mg protein
- Uptake Activity of test article, Mg-ATP [2, 6]: 6.79 pmol/minute/mg protein
- ATP-dependent BSEP uptake activity relative to AMP uptake ([2]; test article 1 and 10 μM): > 2 fold
- remaining BSEP activity after cyclosporine A treatment [2]: ≤ 12.6%
- substrate of BSEP (conclusion in words) ([2]; test article 1 and 10 μM): a substrate of BSEP transporters
- substrate of BSEP (conclusion in words) ([2]; test article 1 and 10 μM, listed as tauroursodeoxycholic acid): a substrate of BSEP
- inhibition of test article uptake by cyclosporine A ([2]; test article 1 and 10 μM): inhibited by cyclosporine A
- activity at 30 min, 5 μM [3]: 46.2%
- activity at 30 min, 50 μM [3]: 5.14%
- potency estimated from few doses at 30 min [3]: < 5 µM
- solubility [4, 7]: 0.05 mM (≈ 25 µg/mL)
- solubility [4, 8]: 10 mM (≈ 5000 µg/mL)

SMILES: C[C@H](CCC(=O)O)[C@H]1CC[C@H]2[C@@H]3[C@@H](O)C[C@@H]4C[C@H](O)CC[C@]4(C)[C@H]3CC[C@]12C [Ursodeoxycholic acid]
- inhibitor of BSEP (conclusion in words) [1]: inhibited uptake of the probe substrate
- inhibitor of BSEP (conclusion in words) ([1]; listed as ursodeoxycholic acid): inhibitors of BSEP
- ATP-Dependent Uptake Activity of 3H-taurocholic acid ([1]; inhibitor 50 μM): 6.04 pmol/minute/mg protein
- Signal-to-Noise Ratio ([1]; inhibitor 50 μM): 9.66
- Uptake Activity of 3H-taurocholic acid, Mg-AMP ([1]; inhibitor 50 μM): 0.697 pmol/minute/mg protein
- Uptake Activity of 3H-taurocholic acid, Mg-ATP ([1]; inhibitor 50 μM): 6.73 pmol/minute/mg protein
- ATP-Dependent Uptake Activity of 3H-taurocholic acid ([1]; inhibitor 500 μM): 0.425 pmol/minute/mg protein
- Signal-to-Noise Ratio ([1]; inhibitor 500 μM): 1.95
- Uptake Activity of 3H-taurocholic acid, Mg-AMP ([1]; inhibitor 500 μM): 0.449 pmol/minute/mg protein
- Uptake Activity of 3H-taurocholic acid, Mg-ATP ([1]; inhibitor 500 μM): 0.873 pmol/minute/mg protein
- ATP-Dependent Uptake Activity of test article ([2]; test article 1 μM): could not be detected
- Uptake Activity of test article, Mg-AMP ([2]; test article 1 μM): BLQ
- Uptake Activity of test article, Mg-ATP ([2]; test article 1 μM): BLQ
- Uptake Activity of test article, Mg-AMP [2, 5]: BLQ
- Uptake Activity of test article, Mg-ATP [2, 5]: BLQ
- ATP-Dependent Uptake Activity of test article ([2]; test article 10 μM): 0.792 pmol/minute/mg protein
- Signal-to-Noise Ratio ([2]; test article 10 μM): 1.26
- Uptake Activity of test article, Mg-AMP ([2]; test article 10 μM): 3.08^b pmol/minute/mg protein
- Uptake Activity of test article, Mg-ATP ([2]; test article 10 μM): 3.87^b pmol/minute/mg protein
- Uptake Activity of test article, Mg-AMP [2, 6]: BLQ
- Uptake Activity of test article, Mg-ATP [2, 6]: 5.61^b pmol/minute/mg protein
- ATP-Dependent Uptake Activity of test article [2, 9]: 0.792^b pmol/minute/mg protein
- Signal-to-Noise Ratio [2, 9]: 1.26^b
- ATP-dependent BSEP uptake activity relative to AMP uptake ([2]; test article 1 and 10 μM): < 2 fold
- substrate of BSEP (conclusion in words) ([2]; test article 1 and 10 μM): not a substrate
- substrate of BSEP (conclusion in words) ([2]; test article 1 and 10 μM, listed as ursodeoxycholic acid): not a substrate of BSEP
- IC50 at 30 min [3]: < 500 µM
- activity at 30 min, 50 μM [3]: 64%
- activity at 30 min, 500 μM [3]: 4.5%
- potency estimated from few doses at 30 min [3]: < 500 µM
- solubility [4, 7]: 0.5 mM (≈ 196 µg/mL)
- solubility [4, 8]: 100 mM (≈ 39300 µg/mL)
